This note sets out measurements from ChEMBL document CHEMBL4177704, “Synthesis and biological evaluation of water-soluble derivatives of chiral gossypol as HIV fusion inhibitors targeting gp41” (Bioorg Med Chem Lett, 2018).

Data set [1] is described as follows: Spermicidal activity against mouse sperm assessed as motility of sperm at 100 uM after 1 hr by hemocytometric analysis. Format: ADME.
For another data set, the system named is TZM. Put plainly: Cytotoxicity against human TZM-bl cells after 72 hrs by MTT assay. Format: cell-based. As to conditions: tzm, 72 h.
Data set [2] relates to Human immunodeficiency virus 1. Put plainly: Antiviral activity against HIV-1 3B infected in human TZM-bl cells treated for 2 hrs followed by compound washout measured after 2 days by luciferase reporter assay. Format: functional, organism-based. Background: A reporter such as luciferase makes a cellular process visible.
In data set [3] the test system is Human immunodeficiency virus 1. Put plainly: Antiviral activity against HIV-1 3B infected in human TZM-bl cells at 10 uM treated simultaneously with viral infection for 2 hrs followed by compound washout measured after 2 days by luciferase reporter assay. Format: functional, organism-based.
Data set [4] has as its system Human immunodeficiency virus 1. The experiment in a line: Antiviral activity against HIV-1 3B infected in human TZM-bl cells at 10 uM treated 2 to 6 hrs post infection for 2 hrs followed by compound washout measured after 2 days by luciferase reporter assay. The class given is functional, organism-based.
For data set [5], the system named is Human immunodeficiency virus 1. The experiment in a line: Antiviral activity against X4R5 tropic HIV-1 93TH051 expressing Env subtype E infected in human PBMC assessed as reduction in p24 expression levels after 4 days by ELISA. Format: functional, organism-based. To be noted: Human immunodeficiency virus 1, 93TH051, PBMC, 96 h. A general note: An ELISA detects its analyte on a solid surface through an enzyme-linked reagent.

The target of data set [6] is Envelope glycoprotein gp160 (Human immunodeficiency virus 1, UniProt Q6QLK5). The experiment in a line: Inhibition of HIV gp41 6-helix bundle formation preincubated with C34 and N36 for 30 mins.
Sequence of Envelope glycoprotein gp160 (Q6QLK5 whole entry): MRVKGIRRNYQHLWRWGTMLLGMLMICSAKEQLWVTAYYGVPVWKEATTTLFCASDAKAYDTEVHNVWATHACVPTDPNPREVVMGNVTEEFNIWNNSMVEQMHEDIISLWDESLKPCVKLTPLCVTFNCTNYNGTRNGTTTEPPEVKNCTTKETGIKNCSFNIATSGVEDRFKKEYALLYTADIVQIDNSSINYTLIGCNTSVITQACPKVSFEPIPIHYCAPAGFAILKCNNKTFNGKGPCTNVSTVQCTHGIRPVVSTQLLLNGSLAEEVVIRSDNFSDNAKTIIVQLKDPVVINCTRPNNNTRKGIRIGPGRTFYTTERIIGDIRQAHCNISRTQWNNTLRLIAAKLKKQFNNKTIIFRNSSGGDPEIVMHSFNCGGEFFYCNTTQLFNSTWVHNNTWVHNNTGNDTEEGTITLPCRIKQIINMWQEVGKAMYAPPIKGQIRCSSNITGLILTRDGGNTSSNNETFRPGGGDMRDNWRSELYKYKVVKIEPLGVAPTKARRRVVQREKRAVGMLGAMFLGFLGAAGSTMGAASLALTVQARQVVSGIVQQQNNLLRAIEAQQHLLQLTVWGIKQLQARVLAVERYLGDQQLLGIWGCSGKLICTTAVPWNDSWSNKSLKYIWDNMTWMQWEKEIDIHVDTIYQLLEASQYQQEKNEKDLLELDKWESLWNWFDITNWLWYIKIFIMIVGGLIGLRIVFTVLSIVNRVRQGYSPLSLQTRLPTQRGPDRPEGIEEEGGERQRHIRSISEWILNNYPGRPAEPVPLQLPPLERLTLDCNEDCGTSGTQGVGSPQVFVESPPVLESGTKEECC
Data set [7] can be described thus: Selectivity index, ratio of CC50 for human TZM-bl cells to IC50 for HIV-1 3B infected in human TZM-bl cells. Format: toxicity, cell-based.
Setting [8] is: Human immunodeficiency virus 1, 3B, TZM-bl.

Several values for one entry are separate records, joined by “and”; a condition that tells them apart may be missing. Equal entries are not always repeated. Activity calls are given as the source filed them. The calls are words filed in the database; no cut-off is given here.

Usually CC50 stands for the concentration giving 50% cytotoxicity. For the compound `Cc1cc2c(C(C)C)c(O)c(O)c(C=O)c2c(O)c1-c1c(C)cc2c(C(C)C)c(O)c(O)c(C=O)c2c1O` [GOSSYPOL], the Activity result in data set [1] is given as “Toxic”. Moreover, in the data set with TZM, the CC50 is 18.1 µM and 5.22 µM.

By IC50 is commonly meant the midpoint of a concentration-inhibition curve. The compound enfuvirtide had an IC50 in data set [2] (setting [8]) of 0.0905 µM. Besides, the outcome in data set [3] was Active. For the same compound, the result in data set [4] was inactive.

Take `Cc1cc2c(c(O)c1-c1c(C)cc3c(c1O)/C(=C/NC(C)C(=O)NC(C)C(=O)O)C(=O)C(O)=C3C(C)C)/C(=C/NC(C)C(=O)NC(C)C(=O)O)C(=O)C(O)=C2C(C)C` (single isomer, unassigned; (-)): in data set [3], the result was Active. In addition, the result in data set [4] was inactive.

For `Cc1cc2c(c(O)c1-c1c(C)cc3c(c1O)/C(=C/N[C@@H]1[C@@H](O)[C@H](O)[C@@H](CO)O[C@H]1O)C(=O)C(O)=C3C(C)C)/C(=C/N[C@@H]1[C@@H](O)[C@H](O)[C@@H](CO)O[C@H]1O)C(=O)C(O)=C2C(C)C` (stereo in doubt; (-)-1a) [listing 1 of 2 here], the result in data set [3] was Active. In addition, the outcome in data set [4] was inactive.

Regarding `Cc1cc2c(c(O)c1-c1c(C)cc3c(c1O)/C(=C/NC(C)S(=O)(=O)O)C(=O)C(O)=C3C(C)C)/C(=C/NC(C)S(=O)(=O)O)C(=O)C(O)=C2C(C)C` (single isomer, unassigned; (-)), the result in data set [3] was Active. Also, in data set [4], the result was inactive.

Turning to `Cc1cc2c(c(O)c1-c1c(C)cc3c(c1O)/C(=C/N[C@@H]1[C@@H](O)[C@H](O)[C@@H](CO)O[C@H]1O)C(=O)C(O)=C3C(C)C)/C(=C/N[C@@H]1[C@@H](O)[C@H](O)[C@@H](CO)O[C@H]1O)C(=O)C(O)=C2C(C)C` (stereo in doubt; (-)-1a) [listing 2 of 2 here], the IC50 was 0.72 µM in data set [2], 1.22 µM in data set [5] and 6.36 µM in data set [6]. For the same compound, the Activity entry in data set [1] is given as “Non-Toxic”. In the data set on TZM, this compound came in with a half-maximal cytotoxic concentration (CC50) of 23.1 µM. Also, in data set [7], the “Ratio CC50/IC50” value was found to be 32.12.

Regarding `Cc1cc2c(c(O)c1-c1c(C)cc3c(c1O)/C(=C/NC(C)C(=O)NC(C)C(=O)[O-])C(=O)C(O)=C3C(C)C)/C(=C/NC(C)C(=O)NC(C)C(=O)[O-])C(=O)C(O)=C2C(C)C.[Na+].[Na+]` (single isomer, unassigned; (-)), the figures for the IC50 in data set [2], in data set [5] and in data set [6] were 1.43 µM, 1.72 µM and 7.87 µM, respectively. The Activity result in data set [1] is given as “Non-Toxic”. Also, half-maximal cytotoxicity in the data set on TZM (CC50) was put at 35.7 µM. The “Ratio CC50/IC50” value in data set [7] came to 24.99.

On to `Cc1cc2c(c(O)c1-c1c(C)cc3c(c1O)/C(=C/NC(C)S(=O)(=O)[O-])C(=O)C(O)=C3C(C)C)/C(=C/NC(C)S(=O)(=O)[O-])C(=O)C(O)=C2C(C)C.[Na+].[Na+]` (single isomer, unassigned; (-)), for which the results for the IC50 in data set [2], in data set [5] and in data set [6] were 1.17 µM, 1.56 µM and 7.34 µM, respectively. Moreover, in data set [1], the Activity entry is “Non-Toxic”. Further, it took 37.8 µM to reach half-maximal cytotoxicity with TZM (CC50). Further, in data set [7] (TZM-bl cells, read-out: Ratio CC50/IC50), the selectivity ratio came to 32.3.

`Cc1cn([C@H]2C[C@H](N=[N+]=[N-])[C@@H](CO)O2)c(=O)[nH]c1=O` [ZIDOVUDINE] returned an IC50 in data set [2] (setting [8]) of 0.0028 µM. Moreover, in data set [3], the outcome was Active. Also, the result in data set [4] was inactive.
